pIC50: −log10 of the molar value.
Tested on: IL-12 production in human PBMC or THP-1 cells
Assay: In vitro inhibition of IL-12 production in stimulated human PBMC or THP-1 cells (ELISA)
Type: cell-based
Details: representative in vitro IC50 data
Excerpt: The biological activities of a heterocyclic compound can be evaluated by a number of cell-based assays. One of such assays can be conducted using cells from human peripheral blood mononuclear cells (PBMC) or human monocytic cell line (THP-1). The cells are stimulated with a combination of human interferon-γ (IFNγ) and lipopolysaccharide or a combination of IFNγ and Staphylococcus aureus Cowan I in the presence of a test compound. The level of inhibition of IL-12 production can be measured by determining the amount of p70 by using a sandwich ELISA assay with anti-human IL-12 antibodies. IC50 of the test compound can then be determined. Specifically, PBMC or THP-1 cells are incubated with the test compound. Cell viability was assessed using the bioreduction of MTS [3-(4,5-dimethylthiazol-2-yl)-5-(3-carboxymethoxyphenyl)-2-(4-sulfophenyl)-2H-tetrazolium] (Promega, Madison, Wis.).
Reagents. Staphylococcus aureus Cowan I (SAC) was obtained from Calbiochem (La Jolla, Calif.), and lipopolysaccharide (LPS, Serratia marscencens) was obtained from Sigma (St. Louis, Mo.). Human and mouse recombinant IFNγ were purchased from Boehringer Mannheim (Mannheim, Germany) and Pharmingen (San Diego, Calif.), respectively.
Human In Vitro Assay. Human PBMC were isolated by centrifugation using Ficoll-Paque (Pharmacia Biotech, Uppsala, Sweden) and prepared in RPMI medium supplemented with 10% fetal calf serum (FCS), 100 U/mL penicillin, and 100 μg/mL streptomycin. PBMC were plated in wells of a 96-well plate at a concentration of 5×10^5 cells/well, and primed by adding IFNγ (30 U/mL) for 22 h and stimulated by adding LPS (1 μg/mL), or by adding IFNγ (100 U/mL) and then stimulated by adding SAC (0.01%). A test pyrimidine compound was dissolved in DMSO, and added to wells of the 96-well plate. The final DMSO concentration was adjusted to 0.25% in all cultures, including the compound-free control. Human THP-1 cells were plated in wells, primed by adding IFNγ (100 U/mL) for 22 h and stimulated by adding SAC (0.025%) in the presence of different concentrations of the pyrimidine compound. Cell-free supernatants were taken 18 h later for measurement of cytokines. Cell viability was assessed using the bioreduction of MTS. Cell survival was estimated by determining the ratio of the absorbance in compound-treated groups versus compound-free control.
The supernatant was assayed for the amount of IL-12p40, IL-12p70, or IL-10 by using a sandwich ELISA with anti-human antibodies, i.e., a Human IL-12 p40 ELISA kit from R&D Systems (Berkeley, Calif.), and a Human IL-12 p70 or IL-10 ELISA kit from Endogen (Cambridge, Mass.). Assays were based on the manufacturer's instructions.
The biological activities of pyrimidine compounds were tested on human PBMC or THP-1 cells. Unexpectedly, some of the test compounds have IC50 values as low as <1 nM.

COc1cccc(NC(=O)OCCCc2nc(N/N=C/c3cccc(C)c3)cc(N3CCOCC3)n2)c1 [Compound 1, (3-Methoxy-phenyl)-carbamic acid 3-{4-[N′-(3-methyl-benzylidene)-hydrazino]-6-morpholin-4-yl-pyrimidin-2-yl}-propyl ester]
pIC50: 7.30 to 7.60

Cc1cccc(/C=N/Nc2cc(N3CCOCC3)nc(CCCOC(=O)Nc3cccc(C(F)(F)F)c3)n2)c1 [Compound 2, (3-Trifluoromethyl-phenyl)-carbamic acid 3-{4-[N′-(3-methyl-benzylidene)-hydrazino]-6-morpholin-4-yl-pyrimidin-2-yl}-propyl ester]
pIC50: > 7.60

Cc1ccc(NC(=O)OCCCc2nc(N/N=C/c3cccc(C)c3)cc(N3CCOCC3)n2)cc1 [Compound 3, p-Tolyl-carbamic acid 3-{4-[N′-(3-methyl-benzylidene)-hydrazino]-6-morpholin-4-yl-pyrimidin-2-yl}-propyl ester]
pIC50: > 7.60

Cc1cccc(/C=N/N(C)c2cc(N3CCOCC3)nc(CCCOC(=O)Nc3cccc(C(F)(F)F)c3)n2)c1 [Compound 4, (3-Trifluoromethyl-phenyl)-carbamic acid 3-{4-[N-methyl-N′-(3-methyl-benzylidene)-hydrazino]-6-morpholin-4-yl-pyrimidin-2-yl}-propyl ester]
pIC50: < 7.30

Cc1cccc(/C=N/Nc2cc(N3CCOCC3)nc(CCCOC(=O)NC3CCCCC3)n2)c1 [Compound 5, Cyclohexyl-carbamic acid 3-{4-[N′-(3-methyl-benzylidene)-hydrazino]-6-morpholin-4-yl-pyrimidin-2-yl}-propyl ester]
pIC50: > 7.60

Cc1cccc(/C=N/Nc2cc(N3CCOCC3)nc(CCCOC(=O)Nc3ccccc3F)n2)c1 [Compound 6, (2-Fluoro-phenyl)-carbamic acid 3-{4-[N′-(3-methyl-benzylidene)-hydrazino]-6-morpholin-4-yl-pyrimidin-2-yl}-propyl ester]
pIC50: > 7.60

Cc1cccc(/C=N/Nc2cc(N3CCOCC3)nc(CCCOC(=O)Nc3ccc([N+](=O)[O-])cc3)n2)c1 [Compound 7, (4-Nitro-phenyl)-carbamic acid 3-{4-[N′-(3-methyl-benzylidene)-hydrazino]-6-morpholin-4-yl-pyrimidin-2-yl}-propyl ester]
pIC50: > 7.60

CCNC(=O)OCCCc1nc(N/N=C/c2cccc(C)c2)cc(N2CCOCC2)n1 [Compound 8, Ethyl-carbamic acid 3-{4-[N′-(3-methyl-benzylidene)-hydrazino]-6-morpholin-4-yl-pyrimidin-2-yl}-propyl ester]
pIC50: > 7.60

Cc1cccc(/C=N/Nc2cc(N3CCOCC3)nc(CCCOC(=S)Nc3cccnc3)n2)c1 [Compound 9, Pyridin-3-yl-thiocarbamic acid O-(3-{4-[N′-(3-methyl-benzylidene)-hydrazino]-6-morpholin-4-yl-pyrimidin-2-yl}-propyl) ester]
pIC50: > 7.60

Cc1cccc(/C=N/Nc2cc(N3CCOCC3)nc(CCCOC(=O)Nc3cccc4ccccc34)n2)c1 [Compound 10, Naphthalen-1-yl-carbamic acid 3-{4-[N′-(3-methyl-benzylidene)-hydrazino]-6-morpholin-4-yl-pyrimidin-2-yl}-propyl ester]
pIC50: < 7.30

Cc1cccc(/C=N/Nc2cc(N3CCOCC3)nc(CCCOC(=O)Nc3ccc(Oc4ccccc4)cc3)n2)c1 [Compound 11, (4-Phenoxy-phenyl)-carbamic acid 3-{4-[N′-(3-methyl-benzylidene)-hydrazino]-6-morpholin-4-yl-pyrimidin-2-yl}-propyl ester]
pIC50: 7.30 to 7.60

Cc1ccc(NC(=O)OCCc2nc(N/N=C/c3cccc(C)c3)cc(N3CCOCC3)n2)cc1 [Compound 13, p-Tolyl-carbamic acid 2-{4-[N′-(3-methyl-benzylidene)-hydrazino]-6-morpholin-4-yl-pyrimidin-2-yl}-ethyl ester]
pIC50: > 7.60

Cc1ccc(NC(=O)OCCCc2nc(N3CCOCC3)cc(N(C)/N=C/c3cccc(C)c3)n2)cc1 [Compound 14, p-Tolyl-carbamic acid 3-{4-[N-methyl-N′-(3-methyl-benzylidene)-hydrazino]-6-morpholin-4-yl-pyrimidin-2-yl}-propyl ester]
pIC50: > 7.60

Cc1cccc(/C=N/Nc2cc(N3CCOCC3)nc(CCOC(=O)Nc3ccc([N+](=O)[O-])cc3)n2)c1 [Compound 15, (4-Nitro-phenyl)-carbamic acid 2-{4-[N′-(3-methyl-benzylidene)-hydrazino]-6-morpholin-4-yl-pyrimidin-2-yl}-ethyl ester]
pIC50: > 7.60

Cc1ccc(NC(=O)OC(C)(C)Cc2nc(N/N=C/c3cccc(C)c3)cc(N3CCOCC3)n2)cc1 [Compound 16, p-Tolyl-carbamic acid 1,1-dimethyl-2-{4-[N′-(3-methyl-benzylidene)-hydrazino]-6-morpholin-4-yl-pyrimidin-2-yl}-ethyl ester]
pIC50: > 7.60

CCNC(=O)OCCc1nc(N/N=C/c2cccc(C)c2)cc(N2CCOCC2)n1 [Compound 17, Ethyl-carbamic acid 2-{4-[N′-(3-methyl-benzylidene)-hydrazino]-6-morpholin-4-yl-pyrimidin-2-yl}-ethyl ester]
pIC50: > 7.60

Cc1cccc(/C=N/Nc2cc(N3CCOCC3)nc(CCSc3nnnn3CCN(C)C)n2)c1 [Compound 18, Dimethyl-{2-[5-(2-{4-[N′-(3-methyl-benzylidene)-hydrazino]-6-morpholin-4-yl-pyrimidin-2-yl}-ethylsulfanyl)-tetrazol-1-yl]-ethyl}-amine]
pIC50: > 7.60

Cc1ccc(NC(=O)OCCOc2nc(N/N=C/c3cccc(C)c3)cc(N3CCOCC3)n2)cc1 [Compound 19, p-Tolyl-carbamic acid 2-{4-[N′-(3-methyl-benzylidene)-hydrazino]-6-morpholin-4-yl-pyrimidin-2-yloxy}-ethyl ester]
pIC50: > 7.60

Cc1cccc(/C=N/Nc2cc(N3CCOCC3)nc(CCOC(=O)Nc3ccc(C(C)C)cc3)n2)c1 [Compound 20, (4-Isopropyl-phenyl)-carbamic acid 2-{4-[N′-(3-methyl-benzylidene)-hydrazino]-6-morpholin-4-yl-pyrimidin-2-yl}-ethyl ester]
pIC50: < 7.30

Cc1cccc(/C=N/Nc2cc(N3CCOCC3)nc(CCOC(=O)Nc3ccc(Cl)cc3)n2)c1 [Compound 21, (4-Chloro-phenyl)-carbamic acid 2-{4-[N′-(3-methyl-benzylidene)-hydrazino]-6-morpholin-4-yl-pyrimidin-2-yl}-ethyl ester]
pIC50: 7.30 to 7.60

Cc1cccc(/C=N/Nc2cc(N3CCOCC3)nc(CCOC(=O)Nc3ccc(C#N)cc3)n2)c1 [Compound 22, (4-Cyano-phenyl)-carbamic acid 2-{4-[N′-(3-methyl-benzylidene)-hydrazino]-6-morpholin-4-yl-pyrimidin-2-yl}-ethyl ester]
pIC50: > 7.60

COC(=O)c1ccc(NC(=O)OCCc2nc(N/N=C/c3cccc(C)c3)cc(N3CCOCC3)n2)cc1 [Compound 23, 4-(2-{4-[N′-(3-Methyl-benzylidene)-hydrazino]-6-morpholin-4-yl-pyrimidin-2-yl}-ethoxycarbonylamino)-benzoic acid methyl ester]
pIC50: > 7.60

Cc1cccc(/C=N/Nc2cc(N3CCOCC3)nc(CCOC(=O)Nc3ccccc3)n2)c1 [Compound 24, Phenyl-carbamic acid 2-{4-[N′-(3-methyl-benzylidene)-hydrazino]-6-morpholin-4-yl-pyrimidin-2-yl}-ethyl ester]
pIC50: > 7.60

Cc1cccc(/C=N/Nc2cc(N3CCOCC3)nc(CCSc3nnc(-c4ccncc4)[nH]3)n2)c1 [Compound 25, N-(3-Methyl-benzylidene)-N′-{6-morpholin-4-yl-2-[2-(5-pyridin-4-yl-4H-[1,2,4]triazol-3-ylsulfanyl)-ethyl]-pyrimidin-4-yl}-hydrazine]
pIC50: > 7.60

Cc1cccc(/C=N/Nc2cc(N3CCOCC3)nc(CCC(C)(C)OC(=O)Nc3cccc(C)c3)n2)c1 [Compound 26, m-Tolyl-carbamic acid 1,1-dimethyl-3-{4-[N′-(3-methyl-benzylidene)-hydrazino]-6-morpholin-4-yl-pyrimidin-2-yl}-propyl ester]
pIC50: 7.30 to 7.60

Cc1cccc(/C=N/Nc2cc(N3CCOCC3)nc(CCC(C)(C)OC(=O)Nc3cccc(C(F)(F)F)c3)n2)c1 [Compound 27, (3-Trifluoromethyl-phenyl)-carbamic acid 1,1-dimethyl-3-{4-[N′-(3-methyl-benzylidene)-hydrazino]-6-morpholin-4-yl-pyrimidin-2-yl}-propyl ester]
pIC50: < 7.30

From patent publication US7872005B2, “2-substituted heteroaryl compounds” (Synta Pharmaceuticals Corporation, priority 2004, dated 2011)
